Legend:
[1] = target: T1, full length (1-55) HIV-1 NCp7 (Human immunodeficiency virus type 1 group M subtype B, UniProt P12493); assay: Electromobility Shift Assay (EMSA), competition for ssDNA binding; details: NCp7 300 nM, M13mp18 ssDNA; positive = >25% inhibition at 100µM
T1 construct: recombinant full length (1-55) HIV-1 NCp7 proteins; made in house
Text: The assay used a recombinant full length (1-55) HIV-1 NCp7 proteins based on the NL4-3 sequence (GenBank accession number AF324493). The protein was expressed and purified as described in [Carteau, S., Gorelick, R. J. & Bushman, F. D. Coupled integration of human immunodeficiency virus type 1 cDNA ends by purified integrase in vitro: stimulation by the viral nucleocapsid protein. Journal of virology 73, 6670-6679 (1999)].
Competition for single-stranded (ss) DNA binding was realized by mixing 1 µL of serial dilutions of NC inhibitors (diluted in DMSO) with 44 µL of NCp7 (300 nM) in a reaction buffer (20 mM Tris-HCl pH 7.4, 2 mM MgCl2, 100 mM NaCl, 1 mM DTT). 5 µL of a 10 ng/µL (4 nM) solution of M13mp18 ssDNA (BayouBiolabs) were then added and the tubes were incubated for 25 minutes at 37 °C. The reaction was terminated by chilling the tubes on ice followed by the addition of 5 µL of a loading buffer (30% glycerol, 0.01% xylene cyanol, 10 mM Tris-HCl pH 7.4). Samples were then resolved on 25 cm-long, 1% (w/v) agarose gels (SeaKem LE Agarose, Lonza) in 0.5x TBE. Gels were run in a Sub-Cell GT cuvette (BioRad) for 18 h at room temperature at 3 V/cm, stained with SybrGold (Molecular Probes) and scanned for fluorescence using a Typhoon 8600 (GE Healthcare). The experiments were performed in triplicate. Competition efficiency was realized by measuring the relative distance in pixels between the unbound ssDNA control, the NCp7-bound ssDNA control and the bound ssDNA for each points of the titration with the ImageQuant software. The IC50 was estimated as the NC inhibitors concentrations for which the bound ssDNA migrated at 50% of the distance separating the bound from the unbound ssDNA.

NC(11-55) = NC(11-55) (Human immunodeficiency virus type 1, UniProt P12493); assay: NC inhibition assay (NC-induced cTAR DNA destabilization, fluorescence); format: biochemical, HIV-1; details: for inhibition at 100 µM: single point screening, positive = >25% inhibition at 100µM
Text: The NC inhibition assay is based on the nucleic acid chaperone activity of the NC protein. NC destabilizes the secondary structure of cTAR DNA, the complementary sequence of the transactivation response element, which is involved in minus-strand DNA transfer during reverse transcription. In the assay, the cTAR sequence from the HIV-1 Mal strain (Bernacchi et al, J Mol Biol, 2002) is labeled with a dye (Alexa488 fluorophore) and a quencher 4-(4'-dimethylaminophenylazo)benzoic acid (Dabcyl) at its 5' and 3' ends, respectively. In the absence of destabilization, the close proximity of both cTAR ends results in a strong fluorescence quenching of the dye emission by the Dabcyl group. NC(11-55) added to cTAR at a ratio of 10 NC/cTAR melts the bottom of the cTAR stem, which increases the distance between the dye and the quencher and as a result increases the dye fluorescence signal [Shvadchak et al, (2009) Identification by high throughput screening of small compounds inhibiting the nucleic acid destabilization activity of the HIV-1 nucleocapsid protein. Biochimie, 916-923]. NCIs are expected to prevent the NC-induced destabilization of cTAR and thus reverse the NC-induced increase in the fluorescence of the labeled cTAR. The activity of the inhibitor is thus evaluated from the ratio of the fluorescence intensity observed in the presence of NC with the molecule to the one in the absence of the compound.
The doubly labelled cTAR DNA oligonucleotides (55nt) were synthesised and purified by IBA GmbH Nucleic Acids Product Supply (Göttingen, Germany). Extinction coefficient at 260 nm of 5.73 x 10^5 M^-1 cm^-1 was used to determine the concentration of cTAR.
The NC(11-55) peptide (Avilov et al, Antimicrob Agents Chemother, 2012) was synthesized by solid-phase peptide synthesis on a 433A synthesizer (ABI, Foster City, CA) as previously described [De Rocquigny H, (1991) First large scale chemical synthesis of the 72 amino acid HIV-1 nucleocapsid protein NCp7 in an active form. Biochem Biophys Res Commun., 1010-1018]. The peptide was stored lyophilized and was resuspended in water before use. The concentration of peptide was determined by using an extinction coefficient of 5.7 x 10^3 M^-1 cm^-1 at 280 nm. Next, 2.5 molar equivalents of ZnSO4 were added and pH was raised to its final value by adding buffer.
All experiments were performed at 20 °C in 25 mM Tris-HCl (pH 7.5), 30 mM NaCl, and 0.2 mM MgCl2. To evaluate the inhibition activity of compounds on NC-induced cTAR destabilization, cTAR DNA (0.1 µM) was preincubated with 1 µM NC(11-55) (molar ratio NC:cTAR = 10:1) for 15 min at room temperature before addition of compound. For single point screening, all compounds were tested at three final concentrations: 1 µM, 10 µM and 100 µM. For the IC50 determination, inhibition of NC-induced cTAR melting was monitored through addition of increasing concentrations of the selected molecules to the pre-formed NC(11-55)-cTAR complex. After the addition of compound, the mixture was incubated for 15 min at room temperature before the reading. The fluorescence signal was recorded with a plate reader Xenius (SAFAS Monaco) or Fluoromax 3 spectrofluorometer (Horiba Jobin-Yvon), and the excitation and emission wavelengths were 480 and 520 nm, respectively. The spectra were corrected for dilution, buffer fluorescence and screening effect (when it was required). In order to check the occurrence of aggregation, we performed additional reading of absorption with the plate reader Xenius (SAFAS Monaco) or Cary 4000 spectrophotometer (Agilent). […]

Row | Structure (SMILES) | EMSA screening results [1] | IC50 (NC(11-55)) [µM] | inhibition at 100 µM (NC(11-55)) [%] | HIV-1 nucleocapsid inhibition (result in words) (NC(11-55); same experimental settings as the compounds of the invention)
1 | O=C(OC1CCCCC1)c1nc(-c2ccccn2)nc(O)c1O [Compound 13, cyclohexyl 5,6-dihydroxy-2-(pyridin-2-yl)pyrimidine-4-carboxylate] | Negative | 237 | > 25 | 
2 | C[C@@H](NC(=O)c1nc(-c2nc3ccccc3[nH]2)nc(O)c1O)C1CCCCC1 [Compound 29, (R)-2-(1H-benzo[d]imidazol-2-yl)-N-(1-cyclohexylethyl)-5,6-dihydroxypyrimidine-4-carboxamide] | Positive (A compound showing >25% inhibition when tested at 100µM concentration is considered as "positive") | 2.5 | > 25 | 
3 | Cc1ccc(-c2nc(O)c(O)c(C(=O)N[C@H](C)C3CCCCC3)n2)nc1 [Compound 41, (R)-N-(1-cyclohexylethyl)-5,6-dihydroxy-2-(5-methylpyridin-2-yl)pyrimidine-4-carboxamide] | Positive (A compound showing >25% inhibition when tested at 100µM concentration is considered as "positive") |  | > 25 | 
4 | O=C(NCCC1CCCC1)c1nc(-c2ccccn2)nc(O)c1O [Compound 43, N-(2-cyclopentylethyl)-5,6-dihydroxy-2-(pyridin-2-yl)pyrimidine-4-carboxamide] | Positive (A compound showing >25% inhibition when tested at 100µM concentration is considered as "positive") |  | > 25 | 
5 | C[C@@H](NC(=O)c1nc(-c2cc(C(=O)OCc3ccccc3)ccn2)nc(O)c1O)C1CCCCC1 [Compound 46, benzyl (R)-2-(4-((1-cyclohexylethyl)carbamoyl)-5,6-dihydroxypyrimidin-2-yl)isonicotinate] | Positive (A compound showing >25% inhibition when tested at 100µM concentration is considered as "positive") | 10 | > 25 | 
6 | C[C@@H](NC(=O)c1nc(-c2ccc(C(=O)NCc3ccccc3)cn2)nc(O)c1O)C1CCCCC1 [Compound 50, (R)-2-(5-(benzylcarbamoyl)pyridin-2-yl)-N(1-cyclohexylethyl)-5,6-dihydroxypyrimidine-4-carboxamide] | Positive (A compound showing >25% inhibition when tested at 100µM concentration is considered as "positive") | 5 | > 25 | 
7 | C[C@@H](NC(=O)c1nc(-c2ccc(C(N)=O)cn2)nc(O)c1O)C1CCCCC1 [Compound 51, (R)-2-(5-carbamoylpyridin-2-yl)-N-(1-cyclohexylethyl)-5,6-dihydroxypyrimidine-4-carboxamide] | Negative | 10 | > 25 | 
8 | C[C@H](NC(=O)c1nc(-c2cc(C(F)(F)F)ccn2)nc(O)c1O)C1CCCCC1 [Compound 52, (S)-N-(1-cyclohexylethyl)-5,6-dihydroxy-2-(4-(trifluoromethyl)pyridin-2-yl)pyrimidine-4-carboxamide] | Positive (A compound showing >25% inhibition when tested at 100µM concentration is considered as "positive") | 26.5 | > 25 | 
9 | C[C@@H](NC(=O)c1nc(-c2cccc(C(=O)OCc3ccccc3)n2)nc(O)c1O)C1CCCCC1 [Compound 54, benzyl (R)-6-(4-((1-cyclohexylethyl)carbamoyl)-5,6-dihydroxypyrimidin-2-yl)picolinate] | Positive (A compound showing >25% inhibition when tested at 100µM concentration is considered as "positive") |  | > 25 | 
10 | CC1CCC(NC(=O)c2nc(-c3ccccn3)nc(O)c2O)CC1 (stereo not drawn) [Compound 56, 5,6-dihydroxy-N-(4-methylcyclohexyl)-2-(pyridin-2-yl)pyrimidine-4-carboxamide] | Positive (A compound showing >25% inhibition when tested at 100µM concentration is considered as "positive") | 35 | > 25 | 
11 | CC1CCCC(NC(=O)c2nc(-c3ccccn3)nc(O)c2O)C1 (stereo not drawn) [Compound 57, 5,6-dihydroxy-N-(3-methylcyclohexyl)-2-(pyridin-2-yl)pyrimidine-4-carboxamide] | Positive (A compound showing >25% inhibition when tested at 100µM concentration is considered as "positive") | 35.5 | > 25 | 
12 | CC1(C)CCC(NC(=O)c2nc(-c3ccccn3)nc(O)c2O)CC1 [Compound 58, N-(4,4-dimethylcyclohexyl)-5,6-dihydroxy-2-(pyridin-2-yl)pyrimidine-4-carboxamide] | Positive (A compound showing >25% inhibition when tested at 100µM concentration is considered as "positive") | 23 | > 25 | 
13 | COc1ccc2nc(-c3nc(O)c(O)c(C(=O)N[C@H](C)C4CCCCC4)n3)ccc2c1 [Compound 66, (R)-N-(1-cyclohexylethyl)-5,6-dihydroxy-2-(6-methoxyquinolin-2-yl)pyrimidine-4-carboxamide] | Positive (A compound showing >25% inhibition when tested at 100µM concentration is considered as "positive") | 8 | > 25 | 
14 | Cc1ccc(-c2nc(O)c(O)c(C(=O)N[C@H](C)C3CCCCC3)n2)nc1C [Compound 67, (R)-N-(1-cyclohexylethyl)-2-(,5,6-dimethylpyridin-2-yl)-5,6-dihydroxypyrimidine-4-carboxamide] | Positive (A compound showing >25% inhibition when tested at 100µM concentration is considered as "positive") |  | > 25 | 
15 | Cc1nnc(C(=O)NC(C)(C)c2nc(C(=O)NCc3ccc(F)cc3)c(O)c(=O)n2C)o1 [Raltegravir™, Raltegravir, reference compound] |  |  |  | inactive
